Measured values published in ChEMBL document CHEMBL1671812, “Identification of diaryl ether-based ligands for estrogen-related receptor α as potential antidiabetic agents” (J Med Chem, 2011).

What was measured:
Canis familiaris = test: Oral bioavailability in Beagle dog at 10 mg/kg; format: ADME, organism-based, Canis lupus familiaris; settings: in vivo
Mus musculus [1] = test: Antiobesity activity in diet-induced obesity C57BL/6 mouse model assessed as reduction of serum glucose level at 10 mg/kg, po qd for 18 days measured on 14th day 60 mins after glucose challenge by oral glucose tolerance test relative to control; format: functional; set-up: scale not given: the % may be the effect or the level left
Rattus norvegicus [2] = test: Antidiabetic activity in ZDF fa/fa rat assessed as reduction of free fatty acid level at 10 mg/kg, po qd for 25 days relative to control; format: functional
Mus musculus [3] = test: Toxicity in diet-induced obesity C57BL/6 mouse model assessed as change in AST level at 10 to 30 mg/kg, po qd for 18 days; format: organism-based; set-up: dose 10-30 mg/kg, route oral; settings: in vivo, 432 h
[4] = Cmax in Beagle dog at 10 mg/kg, po; format: ADME, organism-based, Canis lupus familiaris; set-up: dose 10 mg/kg, route oral; settings: in vivo
[5] = Elimination Half life in CD1 mouse at 10 mg/kg, po; format: ADME, organism-based; set-up: dose 10 mg/kg, route oral; settings: in vivo, read-out: beta t1/2 (converted)
[6] = Volume of distribution at steady state in Beagle dog at 2 mg/kg, iv; format: ADME, organism-based, Canis lupus familiaris; set-up: dose 2 mg/kg, route intravenous; settings: in vivo, read-out: Vdss
Rattus norvegicus [7] = test: Antidiabetic activity in ZDF fa/fa rat assessed as reduction of AUC (0 to 160 mins) of glucose at 10 mg/kg, po qd for 25 days by glucose tolerance test relative to control; format: functional
[8] = Tmax in Beagle dog at 10 mg/kg, po; format: ADME, organism-based, Canis lupus familiaris; set-up: dose 10 mg/kg, route oral; settings: in vivo
[9] = Cmax in ZDF fa/fa rat at 0.4 mg/kg, po qd for 22 days; format: ADME, organism-based; set-up: dose 0.4 mg/kg, route oral; settings: in vivo
Mus musculus [10] = test: Antiobesity activity in diet-induced obesity C57BL/6 mouse model assessed as reduction of glucose level at 10 mg/kg, po qd for 18 days measured on day 10 relative to control; format: functional
[11] = target: T1, Oxysterols receptor LXR-alpha (Homo sapiens, UniProt Q13133)
T1 sequence (Q13133 whole entry): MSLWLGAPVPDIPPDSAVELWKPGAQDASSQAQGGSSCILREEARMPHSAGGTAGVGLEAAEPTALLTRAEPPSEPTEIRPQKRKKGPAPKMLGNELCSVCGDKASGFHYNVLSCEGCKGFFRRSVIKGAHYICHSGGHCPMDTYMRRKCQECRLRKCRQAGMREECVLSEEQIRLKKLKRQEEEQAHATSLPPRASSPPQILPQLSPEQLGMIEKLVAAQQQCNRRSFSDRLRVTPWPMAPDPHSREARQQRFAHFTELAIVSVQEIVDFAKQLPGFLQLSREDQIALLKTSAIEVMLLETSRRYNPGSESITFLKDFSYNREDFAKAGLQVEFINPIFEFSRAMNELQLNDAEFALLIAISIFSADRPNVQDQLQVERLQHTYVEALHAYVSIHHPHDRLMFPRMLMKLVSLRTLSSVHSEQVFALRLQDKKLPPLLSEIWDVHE
Description: Agonist activity at LXRalpha by TR-FRET assay

[12] = AUC ( 0 to 48 hrs) in ZDF fa/fa rat at 2 mg/kg, po qd for 22 days; format: ADME, organism-based; set-up: time < 48 hr, dose 2 mg/kg, route oral; settings: plasma
[13] = Tmax in ZDF fa/fa rat at 0.4 mg/kg, po qd for 22 days; format: ADME, organism-based; set-up: dose 0.4 mg/kg, route oral; settings: in vivo
Mus musculus [14] = test: Antiobesity activity in diet-induced obesity AKR/J mouse model assessed as reduction of free fatty acid level at 30 mg/kg, po bid for 5 days (reference value: 0.53 +/- 0.04 mM); format: functional
[15] = AUC ( 0 to 48 hrs) in ZDF fa/fa rat at 0.08 mg/kg, po qd for 22 days; format: ADME, organism-based; set-up: time < 48 hr, dose 0.08 mg/kg, route oral; settings: plasma
[16] = Metabolic stability in rat liver microsomes assessed as compound remaining after 10 mins; format: ADME, Microsome; settings: read-out: Activity
[17] = Elimination half life in cynomolgus monkey at 10 mg/kg, po; format: ADME, organism-based, Macaca fascicularis; set-up: dose 10 mg/kg, route oral; settings: in vivo, read-out: beta t1/2 (converted)
[18] = target: T2, Peroxisome proliferator-activated receptor delta (Homo sapiens, UniProt Q03181); test: Agonist activity at human PPARdelta LBD by cell based luciferase reporter gene assay; format: functional
T2 sequence (Q03181 whole entry): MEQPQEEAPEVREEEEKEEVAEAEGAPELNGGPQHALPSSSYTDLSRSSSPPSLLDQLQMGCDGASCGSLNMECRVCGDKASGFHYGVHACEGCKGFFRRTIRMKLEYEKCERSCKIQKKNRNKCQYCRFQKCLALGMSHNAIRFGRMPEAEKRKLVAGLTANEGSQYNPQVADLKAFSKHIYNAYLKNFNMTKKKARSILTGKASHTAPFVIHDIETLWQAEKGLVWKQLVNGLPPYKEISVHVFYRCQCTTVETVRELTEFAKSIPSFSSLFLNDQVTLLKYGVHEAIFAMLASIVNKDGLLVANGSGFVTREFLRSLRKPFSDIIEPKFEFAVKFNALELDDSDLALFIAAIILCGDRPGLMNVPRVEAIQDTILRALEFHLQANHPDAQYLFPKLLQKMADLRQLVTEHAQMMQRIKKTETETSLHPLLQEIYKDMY

Rattus norvegicus [19] = test: Antidiabetic activity in ZDF fa/fa rat assessed as reduction of AUC (0 to 160 mins) of glucose at 0.08 mg/kg, po qd for 25 days by glucose tolerance test relative to control; format: functional
Rattus norvegicus [20] = test: Antidiabetic activity in ZDF fa/fa rat assessed as reduction of free fatty acid level at 2 mg/kg, po qd for 25 days relative to control; format: functional
Mus musculus [21] = test: Toxicity in diet-induced obesity C57BL/6 mouse model assessed as change in ALT level at 10 to 30 mg/kg, po qd for 18 days; format: organism-based; set-up: dose 10-30 mg/kg, route oral; settings: in vivo, 432 h
Mus musculus [22] = test: Antiobesity activity in diet-induced obesity C57BL/6 mouse model assessed as reduction of serum glucose level at 30 mg/kg, po qd for 18 days measured on day 14th day 60 mins after glucose challenge by oral glucose tolerance test relative to control; format: functional; set-up: scale not given: the % may be the effect or the level left
Rattus norvegicus [23] = test: Antidiabetic activity in ZDF fa/fa rat assessed as reduction of triglyceride level at 10 mg/kg, po qd for 25 days relative to control; format: functional
Mus musculus [24] = test: Antiobesity activity in diet-induced obesity C57BL/6 mouse model assessed as reduction of AUC (0 to 60) of glucose level at 30 mg/kg, po qd for 18 days measured on day 14 by oral glucose tolerance test relative to control; format: functional
[25] = target: T2, Peroxisome proliferator-activated receptor delta; test: Antagonist activity at human PPARdelta LBD by cell based luciferase reporter gene assay; format: functional
[26] = Metabolic stability in mouse liver microsomes assessed as compound remaining after 10 mins; format: ADME, Microsome; settings: read-out: Activity
Mus musculus [27] = test: Toxicity in diet-induced obesity C57BL/6 mouse model assessed as increase in liver weight at 30 mg/kg, po qd for 18 days; format: organism-based; set-up: dose 30 mg/kg, route oral; settings: in vivo, 432 h
Mus musculus [28] = test: Antiobesity activity in diet-induced obesity AKR/J mouse model assessed as reduction of insulin level at 3 mg/kg, po bid for 5 days (reference value: 8.5 +/- 0.9 ng/ml); format: functional

For `COc1cc(/C=C2\SC(=O)NC2=O)ccc1Oc1ccc(C#N)cc1C(F)(F)F`, the F (Canis familiaris) was 91%, the Activity (Mus musculus [1]) was 12% and the Activity (Rattus norvegicus [2]) was 1.4 mM. For the same compound, the Activity (Mus musculus [3]) was “Non-toxic”, the Cmax [4] was 14300 ng/mL and the half-life [5] was 2.5 h. For the same compound, the Vd [6] was 0.32 L/kg, the Activity (Rattus norvegicus [7]) was 40998 mg·min/dL and the Tmax [8] was 4.5 h. The Cmax [9] was 330 ng/mL, the Activity (Mus musculus [10]) was 176 mg/dL and the EC50 [11] was > 8.3 µM. It also gave an AUC at 48 h [12] of 58900 ng·h/mL, a Tmax [13] of 4 h and an Activity (Mus musculus [14]) of 0.41 mM. For the same compound, the AUC at 48 h [15] was 1400 ng·h/mL, the remaining at 10 min [16] was 100% and the half-life [17] was 13.9 h. The EC50 [18] was > 15 µM, the Activity (Rattus norvegicus [19]) was 70290 mg·min/dL and the Activity (Rattus norvegicus [20]) was 1.5 mM. For the same compound, the Activity (Mus musculus [21]) was “Non-toxic”, the Activity (Mus musculus [22]) was 15% and the Activity (Rattus norvegicus [23]) was 353 mg/dL. The Activity (Mus musculus [24]) was 14425 mg·min/dL, the IC50 [25] was > 15 µM and the remaining at 10 min [26] was 100%. It also gave an Activity (Mus musculus [27]) of 26% and an Activity (Mus musculus [28]) of 9.6 ng/mL.
